Results reported in publication PMC9757072, “NrnA is a 5′-3′ exonuclease that processes short RNA substrates in vivo and in vitro” (Nucleic Acids Research, 2022).

Tests used:
[1] = biological target: T1, NrnABs (Bacillus subtilis, UniProt O34600, D156N/D80N); assay: DRaCALA
T1 construct: gene nrnA

[2] = biological target: T2, GdpP(82–659)Bs (Bacillus subtilis, UniProt P37484); assay: cleavage of […]-c-di-AMP, denaturing PAGE; assay type: biochemical; details: 100 nM enzyme, 1 uM substrate; pH 8.0, 300 mM NaCl, 200 uM MnCl2, room temperature; labelled compound; positive control
T2 construct: cytoplasmic portion, residues 82-659; N-terminal 6xHis tag kept; expressed in E. coli
T2 sequence (P37484 82-659): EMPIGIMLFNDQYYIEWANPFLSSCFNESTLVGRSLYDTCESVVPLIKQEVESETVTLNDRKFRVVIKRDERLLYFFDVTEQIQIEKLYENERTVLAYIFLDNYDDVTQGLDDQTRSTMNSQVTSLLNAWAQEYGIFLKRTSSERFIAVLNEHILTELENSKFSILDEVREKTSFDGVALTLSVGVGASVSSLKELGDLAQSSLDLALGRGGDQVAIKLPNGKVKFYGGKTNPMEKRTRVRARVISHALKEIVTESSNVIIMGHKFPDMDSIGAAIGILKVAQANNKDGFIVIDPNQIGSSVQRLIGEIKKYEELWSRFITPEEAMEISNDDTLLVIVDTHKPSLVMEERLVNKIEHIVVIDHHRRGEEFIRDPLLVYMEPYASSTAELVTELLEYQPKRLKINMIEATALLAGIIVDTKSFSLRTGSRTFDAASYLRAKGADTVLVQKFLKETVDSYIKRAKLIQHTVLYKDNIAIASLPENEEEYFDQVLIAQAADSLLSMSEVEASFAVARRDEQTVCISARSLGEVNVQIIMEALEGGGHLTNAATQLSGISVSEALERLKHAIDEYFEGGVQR

[3] = biological target: T3, CnpBMs (Mycolicibacterium smegmatis, UniProt A0QVM9); assay: cleavage of […]-c-di-AMP, denaturing PAGE; assay type: biochemical; details: 100 nM enzyme, 1 uM substrate; pH 8.0, 300 mM NaCl, 200 uM MnCl2, room temperature; labelled compound
T3 construct: gene MSMEG_2630
T3 sequence (A0QVM9 1-340): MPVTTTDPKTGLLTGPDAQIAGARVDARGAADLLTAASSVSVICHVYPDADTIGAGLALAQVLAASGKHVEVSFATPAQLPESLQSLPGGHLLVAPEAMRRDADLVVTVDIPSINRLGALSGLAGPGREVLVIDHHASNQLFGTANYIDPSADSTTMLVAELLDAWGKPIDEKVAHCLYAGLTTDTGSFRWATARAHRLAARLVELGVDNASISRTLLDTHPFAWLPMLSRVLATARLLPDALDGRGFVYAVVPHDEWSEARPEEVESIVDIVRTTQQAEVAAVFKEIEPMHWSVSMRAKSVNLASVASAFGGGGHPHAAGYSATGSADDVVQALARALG

[4] = biological target: CnpBMt (Mycobacterium tuberculosis, UniProt P71615); assay: cleavage of […]-c-di-AMP, denaturing PAGE; assay type: biochemical; details: 100 nM enzyme, 1 uM substrate; pH 8.0, 300 mM NaCl, 200 uM MnCl2, room temperature; labelled compound
Chain of CnpBMt (P71615 whole entry): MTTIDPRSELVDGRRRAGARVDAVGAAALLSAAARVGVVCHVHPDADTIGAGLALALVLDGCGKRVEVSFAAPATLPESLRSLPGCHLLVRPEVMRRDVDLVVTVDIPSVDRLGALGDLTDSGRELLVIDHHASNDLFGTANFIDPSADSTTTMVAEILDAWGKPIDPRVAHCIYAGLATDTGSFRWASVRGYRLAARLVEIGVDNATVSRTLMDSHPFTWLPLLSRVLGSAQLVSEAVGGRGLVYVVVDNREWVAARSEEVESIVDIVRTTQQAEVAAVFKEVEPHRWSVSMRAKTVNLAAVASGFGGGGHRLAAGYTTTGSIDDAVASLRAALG

[5] = biological target: T4, OrnEc (Escherichia coli, UniProt P0A784); assay: cleavage of […]'-32P RNA mixture, denaturing PAGE; assay type: biochemical; details: 20 nM enzyme; GG is the 2-mer of the 2-7 and 10-mer mix; pH 8.0, 100 mM NaCl, Mg or Mn; labelled compound
T4 sequence (P0A784 1-181): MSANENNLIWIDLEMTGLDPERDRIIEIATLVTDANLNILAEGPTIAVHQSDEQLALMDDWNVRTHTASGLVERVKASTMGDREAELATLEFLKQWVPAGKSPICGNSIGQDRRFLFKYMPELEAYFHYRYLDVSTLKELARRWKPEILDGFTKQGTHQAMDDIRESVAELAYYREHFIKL

[6] = substrate: Nc1ccn([C@@H]2O[C@H](COP(=O)(O)O[C@H]3[C@@H](O)[C@H](n4ccc(N)nc4=O)O[C@@H]3COP(=O)(O)O[C@H]3[C@@H](O)[C@H](n4cnc5c(N)ncnc54)O[C@@H]3COP(=O)(O)O)[C@@H](O)[C@H]2O)c(=O)n1; assay: continuous PPDK/luciferase coupled assay of AMP release; assay type: biochemical, Bacillus subtilis; details: 10 mM MgCl2, 0.5 mM MnCl2, pH 8.0, 25 C, value assigned to ACC by printed order (AA or ACC), 5'-phosphate inferred from AMP release
[7] = substrate: Nc1ncnc2c1ncn2[C@@H]1O[C@H](COP(=O)(O)O[C@H]2[C@@H](O)[C@H](n3cnc4c(N)ncnc43)O[C@@H]2COP(=O)(O)O)[C@@H](O)[C@H]1O; assay: as above; assay type: biochemical, Bacillus subtilis; details: 10 mM MgCl2, 0.5 mM MnCl2, pH 8.0, 25 C, value assigned to AA by printed order (AA or ACC), 5'-phosphate inferred from 2 AMP per AA

T1 sequence (O34600 whole entry D80N/D156N): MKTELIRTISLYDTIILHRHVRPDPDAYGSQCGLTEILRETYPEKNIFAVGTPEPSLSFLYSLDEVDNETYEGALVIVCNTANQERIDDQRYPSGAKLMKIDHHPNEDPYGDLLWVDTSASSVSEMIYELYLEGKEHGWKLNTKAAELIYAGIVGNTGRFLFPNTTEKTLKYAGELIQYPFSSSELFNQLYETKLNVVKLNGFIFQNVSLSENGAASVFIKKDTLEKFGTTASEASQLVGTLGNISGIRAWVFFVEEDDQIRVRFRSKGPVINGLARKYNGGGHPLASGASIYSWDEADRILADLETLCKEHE

Question: With `Nc1ccn([C@@H]2O[C@H](COP(=O)(O)O)[C@@H](OP(=O)(O)OC[C@H]3O[C@@H](n4cnc5c(N)ncnc54)[C@H](O)[C@@H]3O)[C@H]2O)c(=O)n1` [CA] as the molecule, how does the Kd [1] read?
Answer: The Kd was 2270 ± 130 nM.

Question: With `Nc1ncnc2c1ncn2[C@@H]1O[C@@H]2COP(=O)(O)O[C@H]3[C@@H](O)[C@H](n4cnc5c(N)ncnc54)O[C@@H]3COP(=O)(O)O[C@H]2[C@H]1O` [c-di-AMP] as the molecule, how does the “cleavage of 32P-c-di-AMP, denaturing PAGE” value (from here on “cleavage of 32P-c-di-AMP”) [2] read?
Answer: Its value is “cytoplasmic portion of B. subtilis GdpP, which is known to hydrolyze c-di-AMP”.

Question: And the “cleavage of 32P-c-di-AMP” value [3]?
Answer: The value was “All CnpB-like proteins exhibited robust hydrolysis of c-di-AMP”.

Question: What about the “cleavage of 32P-c-di-AMP” value [4] of the same molecule?
Answer: Its value is “only CnpB demonstrated an ability to directly hydrolyze c-di-AMP to AMP”.

Question: With `Nc1nc2c(ncn2[C@@H]2O[C@H](COP(=O)(O)O)[C@@H](OP(=O)(O)OC[C@H]3O[C@@H](n4cnc5c(N)ncnc54)[C@H](O)[C@@H]3O)[C@H]2O)c(=O)[nH]1` [GA] as the molecule, how does the Kd [1] read?
Answer: The Kd was 360 ± 130 nM.

Question: Which Kd [1] does the source give for `Nc1ncnc2c1ncn2[C@@H]1O[C@H](COP(=O)(O)O[C@H]2[C@@H](O)[C@H](n3ccc(=O)[nH]c3=O)O[C@@H]2COP(=O)(O)O)[C@@H](O)[C@H]1O` [UA] here?
Answer: Its Kd is 1290 ± 180 nM.

Question: With `Nc1nc2c(ncn2[C@@H]2O[C@H](COP(=O)(O)O[C@H]3[C@@H](O)[C@H](n4cnc5c(=O)[nH]c(N)nc54)O[C@@H]3COP(=O)(O)O)[C@@H](O)[C@H]2O)c(=O)[nH]1` [GG] as the molecule, how does the Kd [1] read?
Answer: Its Kd is 210 nM.

Question: And the “cleavage of 5'-32P RNA mixture, denaturing PAGE” value [5]?
Answer: The value was “dinucleotides are rapidly processed, and only minimal trinucleotide processing was seen”.

Question: Which Kd [1] does the source give for `Nc1ncnc2c1ncn2[C@@H]1O[C@H](COP(=O)(O)O[C@H]2[C@@H](O)[C@H](n3cnc4c(N)ncnc43)O[C@@H]2COP(=O)(O)O)[C@@H](O)[C@H]1O` [AA] here?
Answer: Its Kd is 450 ± 30 nM.

B1: NrnABs (Bacillus subtilis subsp. subtilis str. 168) (protein)
chain: MKTELIRTISLYDTIILHRHVRPDPDAYGSQCGLTEILRETYPEKNIFAVGTPEPSLSFLYSLDEVDNETYEGALVIVCDTANQERIDDQRYPSGAKLMKIDHHPNEDPYGDLLWVDTSASSVSEMIYELYLEGKEHGWKLNTKAAELIYAGIVGDTGRFLFPNTTEKTLKYAGELIQYPFSSSELFNQLYETKLNVVKLNGFIFQNVSLSENGAASVFIKKDTLEKFGTTASEASQLVGTLGNISGIRAWVFFVEEDDQIRVRFRSKGPVINGLARKYNGGGHPLASGASIYSWDEADRILADLETLCKEHE
notes: full length; N-terminal 10xHis-SUMO tag cleaved by bdSENP1; expressed in E. coli T7 Express
Question: Which Km [6] does the source give for B1 here?
Answer: The Km was 325 µM.

Question: What about the Km [7] of the same molecule?
Answer: The Km was 90 µM.
